Experimental data from PMC7734590, “Identification of a Selective RelA Inhibitor Based on DSE-FRET Screening Methods” (International Journal of Molecular Sciences, 2020).
“And” between values parts separate entries of the source, which are not always exact repeats. Equal entries are not always repeated. Structures can show the parent of a compound that is named as a salt. Where two headings read alike, the source gives them in different places.

Experiments:
RelA = RelA (Homo sapiens, UniProt Q04206); test: DSE-FRET RelA–DNA binding inhibition; format: biochemical; parameters: Kinetic assay RelA Inhibition % ΔRFU(60 min-0 min) / RelA HTS % Inhibition / RelA Retest % Inhibition Run1 / RelA Retest % Inhibition Run2 / RelA Retest % Inhibition Avg. / Kinetic assay RelA % Inhibition ΔRFU(60 min-0 min): dose or concentration left out as unconfirmed
Sequence of RelA (Q04206 19-306 limits assumed): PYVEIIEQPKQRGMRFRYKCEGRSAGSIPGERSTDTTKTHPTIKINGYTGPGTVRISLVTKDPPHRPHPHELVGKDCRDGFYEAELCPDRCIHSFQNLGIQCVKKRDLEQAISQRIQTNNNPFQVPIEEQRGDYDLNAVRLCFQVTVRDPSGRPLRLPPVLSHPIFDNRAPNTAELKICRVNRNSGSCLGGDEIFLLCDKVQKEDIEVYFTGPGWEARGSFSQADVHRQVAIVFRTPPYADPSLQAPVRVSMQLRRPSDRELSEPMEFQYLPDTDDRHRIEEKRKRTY

p52 = target: T1, p52 (Homo sapiens, UniProt Q00653); test: DSE-FRET p52–DNA binding inhibition; format: biochemical; parameters: p52 Retest % Inhibition Run2 / p52 Retest % Inhibition Avg. / Kinetic assay p52 Inhibition % ΔRFU(60 min-0 min) / p52 HTS % Inhibition / p52 Retest % Inhibition Run1: dose or concentration left out as unconfirmed
T1 sequence (Q00653 1-454 limits assumed): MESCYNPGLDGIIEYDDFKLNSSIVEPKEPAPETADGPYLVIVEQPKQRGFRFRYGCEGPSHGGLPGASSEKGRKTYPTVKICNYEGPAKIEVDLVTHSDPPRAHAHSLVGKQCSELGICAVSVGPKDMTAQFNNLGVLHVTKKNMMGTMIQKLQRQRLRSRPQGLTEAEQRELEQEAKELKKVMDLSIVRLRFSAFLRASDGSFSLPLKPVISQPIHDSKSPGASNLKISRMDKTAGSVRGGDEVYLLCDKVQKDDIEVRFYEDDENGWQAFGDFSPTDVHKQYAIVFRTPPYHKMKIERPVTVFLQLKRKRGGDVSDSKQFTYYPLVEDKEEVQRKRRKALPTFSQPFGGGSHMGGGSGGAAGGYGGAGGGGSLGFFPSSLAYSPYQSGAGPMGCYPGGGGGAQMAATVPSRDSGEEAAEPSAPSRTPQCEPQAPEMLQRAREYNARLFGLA
Experimental: Plate-based (384 scale) DNA-binding experiments were carried out with 0.1 µL of 2 mM or 1 mg/mL compound, 2 µL of 80 nM NF-D1 (consisting of NF-01F and NF-14D), 1 µL of 20 ng/µL poly dI-dC, and 6.9 µL of 3.2 pmol protein in binding buffer (10 mM 4-(2-hydroxyethyl)-1-piperazineethanesulfonic acid (HEPES)–NaOH pH 7.9, 50 mM KCl, 0.1 mM ethylenediaminetetraacetic acid (EDTA), 2.5 mM dithiothreitol (DTT), 10% glycerol, and 0.05% Nonidet P40). The plates were incubated for 30 min at room temperature, after which 10 µL of NF-D2 (consisting of NF-02 and NF-13) was added. The plates were centrifuged at 1000 rpm for 30 s, followed by shaking for 30 s using a plate shaker (Biotec). Fluorescence was measured at 528 nm, after excitation at 485 nm, using a multiplate reader (Biotec) over a period of 60 min.

[1] = HTS, known drugs, 10 µM, read-out: RelA HTS % Inhibition @ 10 µM
[2] = kinetic assay, 60 min-0 min, 10 µM, read-out: Kinetic assay @ 10 µM RelA % Inhibition ΔRFU(60 min-0 min)
[3] = retest, Run1, 10 µM, read-out: RelA Retest % Inhibition @ 10 µM Run1
[4] = retest, Run2, 10 µM, read-out: RelA Retest % Inhibition @ 10 µM Run2
[5] = retest, average of Run1 and Run2, 10 µM, read-out: RelA Retest % Inhibition @ 10 µM Avg.
[6] = HTS, known drugs, 10 µM, read-out: p52 HTS % Inhibition @ 10 µM
[7] = kinetic assay, 60 min-0 min, 10 µM, read-out: Kinetic assay @ 10 µM p52 % Inhibition ΔRFU(60 min-0 min)
[8] = retest, Run1, 10 µM, read-out: p52 Retest % Inhibition @ 10 µM Run1
[9] = retest, Run2, 10 µM, read-out: p52 Retest % Inhibition @ 10 µM Run2
[10] = retest, average of Run1 and Run2, 10 µM, read-out: p52 Retest % Inhibition @ 10 µM Avg.
[11] = Retest average of Run1 and Run2
[12] = kinetic assay, ΔRFU 60 min-0 min

## COc1cccc2c1C(=O)c1c(O)c3c(c(O)c1C2=O)C[C@@](O)(C(=O)CO)C[C@@H]3O[C@H]1C[C@H](N)[C@@H](O)[C@H](C)O1 [EPIRUBICIN HYDROCHLORIDE]
RelA; [1]
  inhibition at 10 µM: 82.2%
RelA; [2]
  inhibition at 10 µM: -11%
RelA; [3]
  inhibition at 10 µM: 77.3%
RelA; [4]
  inhibition at 10 µM: 88.4%
RelA; [5]
  inhibition at 10 µM: 82.9%
p52; [6]
  inhibition at 10 µM: 88.4%
p52; [7]
  inhibition at 10 µM: -11%
p52; [8]
  inhibition at 10 µM: 77.2%
p52; [9]
  inhibition at 10 µM: 88.8%
p52; [10]
  inhibition at 10 µM: 83%

## CC(=O)Oc1cccc2c1C(=O)c1c(OC(C)=O)cc(C(=O)O)cc1C2=O [Diacerein]
RelA; [1]
  inhibition at 10 µM: 97.4%
RelA; [2]
  inhibition at 10 µM: 4%
RelA; [3]
  inhibition at 10 µM: 51.6%
RelA; [4]
  inhibition at 10 µM: 57.2%
RelA; [5]
  inhibition at 10 µM: 54.4%
p52; [6]
  inhibition at 10 µM: 72.2%
p52; [7]
  inhibition at 10 µM: 3%
p52; [8]
  inhibition at 10 µM: 46.8%
p52; [9]
  inhibition at 10 µM: 54%
p52; [10]
  inhibition at 10 µM: 50.4%

## Nc1ccc2nc3ccc(N)cc3[n+](-c3ccccc3)c2c1.[Cl-] [Phenosafranin]
RelA; HTS, NPDepo hits
  RelA HTS % Inhibition: 99.3%
RelA; Retest Run1
  RelA Retest % Inhibition Run1: 77.2%
RelA; Retest Run2
  RelA Retest % Inhibition Run2: 83.4%
RelA; [11]
  RelA Retest % Inhibition Avg.: 80.3%
RelA; [12]
  Kinetic assay RelA Inhibition % ΔRFU(60 min-0 min): -12%
p52; HTS, NPDepo hits
  p52 HTS % Inhibition: 86.7%
p52; Retest Run1
  p52 Retest % Inhibition Run1: 78.7%
p52; Retest Run2
  p52 Retest % Inhibition Run2: 85.1%
p52; [11]
  p52 Retest % Inhibition Avg.: 81.9%
p52; [12]
  Kinetic assay p52 Inhibition % ΔRFU(60 min-0 min): -3.56%

## O=C1NC(=O)c2c1c1c3ccccc3n3c1c1c2c2ccccc2n1C1CCC3O1 [SB 218078]
RelA; kinetic assay, 60 min-0 min
  Kinetic assay RelA % Inhibition ΔRFU(60 min-0 min): 13%
p52; kinetic assay, 60 min-0 min
  Kinetic assay p52 % Inhibition ΔRFU(60 min-0 min): 5%

## OCCN(CCO)c1nc(N2CCCCC2)c2nc(N(CCO)CCO)nc(N3CCCCC3)c2n1 [DIPYRIDAMOLE]
RelA; kinetic assay, 60 min-0 min
  Kinetic assay RelA % Inhibition ΔRFU(60 min-0 min): -1.49%
p52; kinetic assay, 60 min-0 min
  Kinetic assay p52 % Inhibition ΔRFU(60 min-0 min): -1.17%

## O=C1NC(=O)c2c1c1c3ccccc3[nH]c1c1[nH]c3ccccc3c21 [Arcyriaflavin A]
RelA; kinetic assay, 60 min-0 min
  Kinetic assay RelA % Inhibition ΔRFU(60 min-0 min): -3.51%
p52; kinetic assay, 60 min-0 min
  Kinetic assay p52 % Inhibition ΔRFU(60 min-0 min): -3.54%

## O=C1Nc2ccc(I)cc2/C1=C/c1cc(Br)c(O)c(Br)c1 [GW 5074]
RelA; kinetic assay, 60 min-0 min
  Kinetic assay RelA % Inhibition ΔRFU(60 min-0 min): -17%
p52; kinetic assay, 60 min-0 min
  Kinetic assay p52 % Inhibition ΔRFU(60 min-0 min): -18%

## COc1cccc2c1C(=O)c1c(O)c3c(c(O)c1C2=O)C[C@@](O)(C(=O)CO)C[C@@H]3O[C@H]1C[C@H](N)[C@H](O)[C@H](C)O1 [Doxorubicin hydrochloride]
RelA; kinetic assay, 60 min-0 min
  Kinetic assay RelA % Inhibition ΔRFU(60 min-0 min): -15%
p52; kinetic assay, 60 min-0 min
  Kinetic assay p52 % Inhibition ΔRFU(60 min-0 min): -15% and -17%

## COc1cccc2c1C(=O)c1c(O)c3c(c(O)c1C2=O)C[C@@](O)(C(=O)CO)C[C@@H]3O[C@H]1C[C@H](N)[C@H](O)[C@H](C)O1 [DOXORUBICIN]
RelA; kinetic assay, 60 min-0 min
  Kinetic assay RelA % Inhibition ΔRFU(60 min-0 min): -14%
p52; kinetic assay, 60 min-0 min
  Kinetic assay p52 % Inhibition ΔRFU(60 min-0 min): -16%

## O=C(O)c1cc(O)c2c(c1)[C@H]([C@H]1c3cc(C(=O)O)cc(O)c3C(=O)c3c(O[C@@H]4O[C@H](CO)[C@@H](O)[C@H](O)[C@H]4O)cccc31)c1cccc(O[C@@H]3O[C@H](CO)[C@@H](O)[C@H](O)[C@H]3O)c1C2=O [Sennoside A]
RelA; 1 = judged hit after retest
  Hit Judgement of: RelA: 1
RelA; HTS, 5 µg/mL, NPDepo hits, read-out: RelA HTS % Inhibition @ 5 µg/mL
  inhibition at 5 µg/mL: 85.4%
RelA; Retest Run1, 5 µg/mL, read-out: RelA Retest % Inhibition @ 5 µg/mL Run1
  inhibition at 5 µg/mL: 88.7%
RelA; Retest Run2, 5 µg/mL, read-out: RelA Retest % Inhibition @ 5 µg/mL Run2
  inhibition at 5 µg/mL: 100%
RelA; Retest average of Run1 and Run2, 5 µg/mL, read-out: RelA Retest % Inhibition @ 5 µg/mL Avg.
  inhibition at 5 µg/mL: 94.6%
RelA; kinetic assay, 5 µg/mL, ΔRFU 60 min-0 min, read-out: Kinetic assay @ 5 µg/mL RelA Inhibition % ΔRFU(60 min-0 min)
  inhibition at 5 µg/mL: 31%
p52; 1 = judged hit after retest
  Hit Judgement of: p52: 1
